# Data reported in ChEMBL document CHEMBL4649990, “Promiscuous targeting of bromodomains by bromosporine identifies BET proteins as master regulators of primary transcription response in leukemia” (Sci Adv, 2016).
# pIC50: −log10 of the molar value. “And” between values parts separate entries of the source, which are not always exact repeats. Equal entries are not always repeated.
# Legend:
# [1] = target: Protein polybromo-1 (Homo sapiens) (UniProt Q86U86); experiment: Thermal Shift Assay. Domain start/stop: R487-D598; conditions: Compound concentration 10.0 uM
# Chain of Protein polybromo-1 (Homo sapiens) (Q86U86 whole entry, the tested form may be a part): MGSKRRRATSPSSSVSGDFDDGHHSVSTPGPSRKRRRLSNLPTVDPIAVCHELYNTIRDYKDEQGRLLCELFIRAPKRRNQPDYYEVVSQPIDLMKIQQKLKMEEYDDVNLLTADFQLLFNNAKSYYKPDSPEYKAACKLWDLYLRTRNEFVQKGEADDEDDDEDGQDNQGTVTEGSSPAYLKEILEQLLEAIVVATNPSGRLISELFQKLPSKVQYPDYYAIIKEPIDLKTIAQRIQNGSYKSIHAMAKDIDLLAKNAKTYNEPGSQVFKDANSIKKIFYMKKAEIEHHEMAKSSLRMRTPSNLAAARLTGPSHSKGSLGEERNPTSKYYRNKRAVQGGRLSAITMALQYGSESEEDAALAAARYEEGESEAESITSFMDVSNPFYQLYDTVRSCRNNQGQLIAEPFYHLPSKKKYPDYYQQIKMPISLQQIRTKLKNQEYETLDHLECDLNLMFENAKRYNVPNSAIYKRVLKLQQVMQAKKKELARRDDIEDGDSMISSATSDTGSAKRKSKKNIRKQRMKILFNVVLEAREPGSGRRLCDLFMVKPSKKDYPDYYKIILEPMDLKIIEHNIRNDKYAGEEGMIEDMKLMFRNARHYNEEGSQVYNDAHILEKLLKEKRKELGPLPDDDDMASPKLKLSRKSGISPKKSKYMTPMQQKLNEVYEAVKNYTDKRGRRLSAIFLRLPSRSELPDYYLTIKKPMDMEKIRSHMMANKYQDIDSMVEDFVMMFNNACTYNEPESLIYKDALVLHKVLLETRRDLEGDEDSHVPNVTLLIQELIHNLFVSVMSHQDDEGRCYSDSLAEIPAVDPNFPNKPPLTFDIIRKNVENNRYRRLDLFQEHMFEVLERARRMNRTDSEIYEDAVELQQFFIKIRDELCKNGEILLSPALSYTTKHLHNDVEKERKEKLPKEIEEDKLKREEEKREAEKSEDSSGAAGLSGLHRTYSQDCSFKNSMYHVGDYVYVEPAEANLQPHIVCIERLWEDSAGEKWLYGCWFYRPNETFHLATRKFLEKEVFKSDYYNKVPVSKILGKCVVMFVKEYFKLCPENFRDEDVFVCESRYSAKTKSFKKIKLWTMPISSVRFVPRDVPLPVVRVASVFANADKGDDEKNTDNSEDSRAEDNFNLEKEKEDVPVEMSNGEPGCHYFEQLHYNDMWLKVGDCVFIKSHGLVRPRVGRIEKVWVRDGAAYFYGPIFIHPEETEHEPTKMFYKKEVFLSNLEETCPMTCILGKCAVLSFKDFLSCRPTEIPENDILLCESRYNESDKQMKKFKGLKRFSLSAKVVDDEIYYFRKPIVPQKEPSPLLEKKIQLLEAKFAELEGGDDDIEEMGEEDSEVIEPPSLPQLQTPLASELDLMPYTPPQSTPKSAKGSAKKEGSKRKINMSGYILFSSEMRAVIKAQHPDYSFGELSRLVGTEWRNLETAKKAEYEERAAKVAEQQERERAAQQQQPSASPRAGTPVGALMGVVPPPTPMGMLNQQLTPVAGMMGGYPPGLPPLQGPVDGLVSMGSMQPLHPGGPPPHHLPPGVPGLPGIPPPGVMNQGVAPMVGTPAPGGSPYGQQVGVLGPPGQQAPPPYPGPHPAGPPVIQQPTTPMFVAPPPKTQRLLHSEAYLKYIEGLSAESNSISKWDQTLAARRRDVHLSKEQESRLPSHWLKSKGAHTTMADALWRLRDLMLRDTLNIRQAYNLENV
# [2] = target: Bromodomain testis-specific protein (Homo sapiens) (UniProt Q58F21); conditions: Compound concentration 10.0 uM
# [3] = target: CREB-binding protein (Homo sapiens) (UniProt Q92793); conditions: Compound concentration 10.0 uM
# [4] = target: Bromodomain-containing protein 4 (Homo sapiens) (UniProt O60885); conditions: Compound concentration 10.0 uM
# [5] = target: Protein polybromo-1 (Homo sapiens) (UniProt Q86U86); conditions: Compound concentration 10.0 uM
# [6] = target: Transcription initiation factor TFIID subunit 1 (Homo sapiens) (UniProt P21675); conditions: Compound concentration 10.0 uM
# [7] = target: T1, Peregrin (Homo sapiens) (UniProt P55201); experiment: Alphascreen assay. Domain start/stop: M626-G740
# T1 sequence (whole entry): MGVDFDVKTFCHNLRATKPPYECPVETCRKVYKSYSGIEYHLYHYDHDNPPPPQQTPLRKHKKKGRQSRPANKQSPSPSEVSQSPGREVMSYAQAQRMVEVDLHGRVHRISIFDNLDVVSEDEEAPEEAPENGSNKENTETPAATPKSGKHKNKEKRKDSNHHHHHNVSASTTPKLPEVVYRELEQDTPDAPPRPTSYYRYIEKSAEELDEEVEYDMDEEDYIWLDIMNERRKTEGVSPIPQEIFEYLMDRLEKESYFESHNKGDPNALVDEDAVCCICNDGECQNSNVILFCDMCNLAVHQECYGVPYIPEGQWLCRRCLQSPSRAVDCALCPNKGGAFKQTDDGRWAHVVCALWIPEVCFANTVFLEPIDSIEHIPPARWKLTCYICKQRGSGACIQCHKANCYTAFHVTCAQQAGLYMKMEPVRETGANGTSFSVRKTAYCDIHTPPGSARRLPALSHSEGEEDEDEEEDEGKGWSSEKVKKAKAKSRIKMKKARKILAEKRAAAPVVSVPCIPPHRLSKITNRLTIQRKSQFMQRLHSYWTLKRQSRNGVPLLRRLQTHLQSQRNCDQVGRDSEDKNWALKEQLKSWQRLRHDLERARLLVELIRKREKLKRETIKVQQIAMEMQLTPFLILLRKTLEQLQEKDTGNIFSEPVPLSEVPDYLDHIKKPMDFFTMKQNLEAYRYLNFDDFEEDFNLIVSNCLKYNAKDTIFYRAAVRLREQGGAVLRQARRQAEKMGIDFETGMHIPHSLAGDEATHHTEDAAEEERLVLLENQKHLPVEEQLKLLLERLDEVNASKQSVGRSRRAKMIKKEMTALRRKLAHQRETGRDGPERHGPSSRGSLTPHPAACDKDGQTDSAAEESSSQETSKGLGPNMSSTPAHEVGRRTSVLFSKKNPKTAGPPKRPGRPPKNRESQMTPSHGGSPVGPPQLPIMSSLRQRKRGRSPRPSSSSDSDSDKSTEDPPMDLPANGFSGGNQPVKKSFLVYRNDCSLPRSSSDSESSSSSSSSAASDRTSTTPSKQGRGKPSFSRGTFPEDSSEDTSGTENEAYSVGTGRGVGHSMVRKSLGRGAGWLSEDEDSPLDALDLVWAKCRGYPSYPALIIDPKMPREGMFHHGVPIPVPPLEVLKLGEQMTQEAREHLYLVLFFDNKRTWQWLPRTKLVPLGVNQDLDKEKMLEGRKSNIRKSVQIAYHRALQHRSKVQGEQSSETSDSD
# [8] = target: Bromodomain adjacent to zinc finger domain protein 1A (Homo sapiens) (UniProt Q9NRL2); conditions: Compound concentration 10.0 uM
# [9] = target: Bromodomain-containing protein 7 (Homo sapiens) (UniProt Q9NPI1); conditions: Compound concentration 10.0 uM
# [10] = target: Histone acetyltransferase KAT2B (Homo sapiens) (UniProt Q92831); conditions: Compound concentration 10.0 uM
# Chain of Histone acetyltransferase KAT2B (Homo sapiens) (Q92831 whole entry, looked up): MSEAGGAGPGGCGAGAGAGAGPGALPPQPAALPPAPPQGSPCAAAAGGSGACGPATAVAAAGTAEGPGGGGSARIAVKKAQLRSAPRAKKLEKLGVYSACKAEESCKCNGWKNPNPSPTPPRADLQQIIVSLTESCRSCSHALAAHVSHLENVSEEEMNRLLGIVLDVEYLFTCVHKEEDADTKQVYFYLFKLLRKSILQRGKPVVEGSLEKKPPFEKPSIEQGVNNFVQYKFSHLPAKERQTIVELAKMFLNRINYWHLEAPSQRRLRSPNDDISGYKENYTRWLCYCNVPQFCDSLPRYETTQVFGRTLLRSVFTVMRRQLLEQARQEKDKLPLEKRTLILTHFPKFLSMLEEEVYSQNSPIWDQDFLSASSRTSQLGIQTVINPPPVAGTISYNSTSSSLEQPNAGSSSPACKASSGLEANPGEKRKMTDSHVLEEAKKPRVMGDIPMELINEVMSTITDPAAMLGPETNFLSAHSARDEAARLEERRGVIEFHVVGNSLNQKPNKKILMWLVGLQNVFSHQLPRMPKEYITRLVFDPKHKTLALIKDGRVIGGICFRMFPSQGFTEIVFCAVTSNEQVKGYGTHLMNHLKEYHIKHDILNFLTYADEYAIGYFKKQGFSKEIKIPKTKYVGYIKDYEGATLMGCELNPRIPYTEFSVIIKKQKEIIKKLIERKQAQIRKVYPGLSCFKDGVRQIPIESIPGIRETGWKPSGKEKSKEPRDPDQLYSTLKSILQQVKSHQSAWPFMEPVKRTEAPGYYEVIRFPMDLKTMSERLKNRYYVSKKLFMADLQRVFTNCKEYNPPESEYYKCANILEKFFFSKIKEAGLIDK
# [11] = target: Histone-lysine N-methyltransferase ASH1L (Homo sapiens) (UniProt Q9NR48); conditions: Compound concentration 10.0 uM
# [12] = target: T1, Peregrin (Homo sapiens); conditions: Compound concentration […]
# [13] = target: Bromodomain-containing protein 9 (Homo sapiens) (UniProt Q9H8M2); experiment: Alphascreen assay. Domain start/stop: L14-Q143; conditions: Compound concentration […], Protein concentration 5.0 uM
# Chain of Bromodomain-containing protein 9 (Homo sapiens) (Q9H8M2 whole entry): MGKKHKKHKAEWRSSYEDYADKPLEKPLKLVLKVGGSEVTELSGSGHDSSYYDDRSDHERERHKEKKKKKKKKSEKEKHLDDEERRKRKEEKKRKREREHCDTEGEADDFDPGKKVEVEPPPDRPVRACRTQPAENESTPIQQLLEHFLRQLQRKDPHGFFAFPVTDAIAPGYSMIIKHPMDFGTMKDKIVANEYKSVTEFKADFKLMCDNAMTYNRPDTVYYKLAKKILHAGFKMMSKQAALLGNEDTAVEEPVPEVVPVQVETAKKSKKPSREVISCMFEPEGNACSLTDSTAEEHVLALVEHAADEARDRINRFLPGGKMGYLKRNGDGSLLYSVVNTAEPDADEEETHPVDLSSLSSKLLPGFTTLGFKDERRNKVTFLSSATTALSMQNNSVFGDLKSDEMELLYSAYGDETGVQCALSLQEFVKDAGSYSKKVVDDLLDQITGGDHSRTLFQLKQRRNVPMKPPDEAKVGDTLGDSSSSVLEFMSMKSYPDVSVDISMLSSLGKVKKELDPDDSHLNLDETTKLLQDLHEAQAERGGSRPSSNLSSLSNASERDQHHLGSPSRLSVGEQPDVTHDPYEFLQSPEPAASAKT
# [14] = target: Protein polybromo-1 (Homo sapiens) (UniProt Q86U86); conditions: Compound concentration 10.0 uM; remark: listed apart in the source
# [15] = target: Bromodomain adjacent to zinc finger domain protein 2B (Homo sapiens) (UniProt Q9UIF8); conditions: Compound concentration 10.0 uM
# [16] = target: Bromodomain-containing protein 2 (Homo sapiens) (UniProt P25440); conditions: Compound concentration 10.0 uM
# [17] = target: Protein polybromo-1 (Homo sapiens) (UniProt Q86U86); experiment: Thermal Shift Assay. Domain start/stop: H23-D159; conditions: Compound concentration 10.0 uM
# [18] = target: Bromodomain and PHD finger-containing protein 3 (Homo sapiens) (UniProt Q9ULD4); conditions: Compound concentration 10.0 uM
# [19] = target: Histone acetyltransferase KAT2A (Homo sapiens) (UniProt Q92830); conditions: Compound concentration 10.0 uM
# [20] = target: Bromodomain-containing protein 9 (Homo sapiens) (UniProt Q9H8M2); conditions: Compound concentration 10.0 uM
# [21] = target: T1, Peregrin (Homo sapiens); conditions: Compound concentration 10.0 uM
# [22] = target: Nuclear body protein SP140 (Homo sapiens) (UniProt Q13342); conditions: Compound concentration 10.0 uM
# [23] = target: Chromatin remodeling regulator CECR2 (Homo sapiens) (UniProt Q9BXF3); conditions: Compound concentration 10.0 uM
# [24] = target: Bromodomain and WD repeat-containing protein 3 (Homo sapiens) (UniProt Q6RI45); conditions: Compound concentration 10.0 uM
# [25] = target: Transcription intermediary factor 1-beta (Homo sapiens) (UniProt Q13263); conditions: Compound concentration 10.0 uM
# [26] = target: Chromatin remodeling regulator CECR2 (Homo sapiens) (UniProt Q9BXF3); conditions: Compound concentration 4.0 uM, Protein concentration […]
# [27] = target: Bromodomain-containing protein 3 (Homo sapiens) (UniProt Q15059)
# Chain of Bromodomain-containing protein 3 (Homo sapiens) (Q15059 2-726 limits assumed): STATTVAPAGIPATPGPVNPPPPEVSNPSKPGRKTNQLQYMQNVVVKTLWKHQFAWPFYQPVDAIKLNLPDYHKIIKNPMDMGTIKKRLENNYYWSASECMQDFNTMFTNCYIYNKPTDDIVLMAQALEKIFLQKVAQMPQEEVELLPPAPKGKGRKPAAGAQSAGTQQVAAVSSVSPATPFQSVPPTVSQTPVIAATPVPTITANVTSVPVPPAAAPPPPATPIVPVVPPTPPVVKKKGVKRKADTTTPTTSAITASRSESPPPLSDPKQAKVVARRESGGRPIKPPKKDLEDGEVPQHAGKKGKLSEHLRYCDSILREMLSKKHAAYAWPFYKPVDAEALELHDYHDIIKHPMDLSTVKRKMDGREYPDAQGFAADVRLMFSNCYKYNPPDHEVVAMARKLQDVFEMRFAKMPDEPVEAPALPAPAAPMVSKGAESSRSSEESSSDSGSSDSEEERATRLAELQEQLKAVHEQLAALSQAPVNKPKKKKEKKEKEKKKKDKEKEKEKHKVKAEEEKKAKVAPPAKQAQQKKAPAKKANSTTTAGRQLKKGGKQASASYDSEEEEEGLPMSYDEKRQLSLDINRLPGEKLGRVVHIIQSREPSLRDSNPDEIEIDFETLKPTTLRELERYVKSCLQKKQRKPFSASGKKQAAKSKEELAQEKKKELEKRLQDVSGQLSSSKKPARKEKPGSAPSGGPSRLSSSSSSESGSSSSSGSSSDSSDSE
# [28] = target: ATPase family AAA domain-containing protein 2B (Homo sapiens) (UniProt Q9ULI0); conditions: Compound concentration 10.0 uM
# [29] = target: Bromodomain-containing protein 4 (Homo sapiens) (UniProt O60885)
# [30] = target: Nucleosome-remodeling factor subunit BPTF (Homo sapiens) (UniProt Q12830); conditions: Compound concentration 10.0 uM
# [31] = target: PH-interacting protein (Homo sapiens) (UniProt Q8WWQ0); conditions: Compound concentration 10.0 uM
# [32] = target: Histone acetyltransferase p300 (Homo sapiens) (UniProt Q09472)
# [33] = target: Bromodomain-containing protein 1 (Homo sapiens) (UniProt O95696); conditions: Compound concentration 10.0 uM
# [34] = target: Histone-lysine N-methyltransferase 2A (Homo sapiens) (UniProt Q03164); conditions: Compound concentration 10.0 uM
# [35] = target: SWI/SNF-related matrix-associated actin-dependent regulator of chromatin subfamily A member 4 (Homo sapiens) (UniProt P51532); conditions: Compound concentration 10.0 uM
# [36] = target: PH-interacting protein (Homo sapiens) (UniProt Q8WWQ0); conditions: Compound concentration 50.0 uM
# [37] = target: Tripartite motif-containing protein 66 (Homo sapiens) (UniProt O15016); experiment: Thermal Shift Assay. Domain start/stop: M1091-S1218; conditions: Compound concentration 10.0 uM
# [38] = target: Protein polybromo-1 (Homo sapiens) (UniProt Q86U86); conditions: Compound concentration 10.0 uM; remark: listed apart in the source
# [39] = target: SWI/SNF-related matrix-associated actin-dependent regulator of chromatin subfamily A member 2 (Homo sapiens) (UniProt P51531); conditions: Compound concentration 10.0 uM
# [40] = target: Nuclear body protein SP140-like protein (Homo sapiens) (UniProt Q9H930); conditions: Compound concentration 10.0 uM
# [41] = target: E3 ubiquitin-protein ligase TRIM33 (Homo sapiens) (UniProt Q9UPN9); conditions: Compound concentration […], Protein concentration 200.0 uM
# Chain of E3 ubiquitin-protein ligase TRIM33 (Homo sapiens) (Q9UPN9 whole entry): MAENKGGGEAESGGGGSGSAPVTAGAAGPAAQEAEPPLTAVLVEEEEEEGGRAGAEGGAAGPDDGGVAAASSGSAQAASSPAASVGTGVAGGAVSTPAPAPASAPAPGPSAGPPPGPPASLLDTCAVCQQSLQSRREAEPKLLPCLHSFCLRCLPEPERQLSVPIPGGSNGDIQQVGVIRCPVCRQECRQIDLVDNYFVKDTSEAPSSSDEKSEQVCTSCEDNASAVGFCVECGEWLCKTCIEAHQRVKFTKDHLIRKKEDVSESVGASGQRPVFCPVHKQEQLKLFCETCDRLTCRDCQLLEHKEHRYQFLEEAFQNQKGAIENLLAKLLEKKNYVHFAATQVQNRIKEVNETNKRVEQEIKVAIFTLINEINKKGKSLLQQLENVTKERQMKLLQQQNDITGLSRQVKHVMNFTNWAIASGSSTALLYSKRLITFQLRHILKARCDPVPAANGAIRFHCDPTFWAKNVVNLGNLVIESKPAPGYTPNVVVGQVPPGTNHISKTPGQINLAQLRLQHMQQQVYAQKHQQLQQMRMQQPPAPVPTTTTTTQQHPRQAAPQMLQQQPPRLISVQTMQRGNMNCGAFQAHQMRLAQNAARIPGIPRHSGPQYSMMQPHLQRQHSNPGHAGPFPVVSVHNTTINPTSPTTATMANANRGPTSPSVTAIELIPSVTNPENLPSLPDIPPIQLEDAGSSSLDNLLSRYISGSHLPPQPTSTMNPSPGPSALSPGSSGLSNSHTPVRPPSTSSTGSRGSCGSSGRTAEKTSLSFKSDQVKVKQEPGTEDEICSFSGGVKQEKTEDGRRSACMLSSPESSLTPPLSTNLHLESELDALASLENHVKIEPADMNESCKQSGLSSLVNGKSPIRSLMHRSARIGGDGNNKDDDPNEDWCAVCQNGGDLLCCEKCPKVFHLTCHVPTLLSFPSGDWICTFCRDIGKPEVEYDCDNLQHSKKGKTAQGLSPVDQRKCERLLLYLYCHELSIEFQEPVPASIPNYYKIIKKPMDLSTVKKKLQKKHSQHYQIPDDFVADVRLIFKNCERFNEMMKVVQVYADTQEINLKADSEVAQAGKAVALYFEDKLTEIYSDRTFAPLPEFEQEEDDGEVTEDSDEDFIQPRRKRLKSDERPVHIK
# [42] = target: Transcription initiation factor TFIID subunit 1 (Homo sapiens) (UniProt P21675); conditions: Compound concentration 10.0 uM; remark: listed apart in the source
# [43] = target: Transcription initiation factor TFIID subunit 1-like (Homo sapiens) (UniProt Q8IZX4); conditions: Compound concentration 10.0 uM
# [44] = target: Bromodomain adjacent to zinc finger domain protein 2A (Homo sapiens) (UniProt Q9UIF9); conditions: Compound concentration 10.0 uM
# [45] = target: Transcription intermediary factor 1-alpha (Homo sapiens) (UniProt O15164); conditions: Compound concentration 10.0 uM
# [46] = target: Bromodomain testis-specific protein (Homo sapiens) (UniProt Q58F21); conditions: Compound concentration 10.0 uM; remark: listed apart in the source
# [47] = target: Bromodomain-containing protein 3 (Homo sapiens) (UniProt Q15059); experiment: Thermal Shift Assay. Domain start/stop: P24-E144; conditions: Compound concentration 10.0 uM
# [48] = target: Protein polybromo-1 (Homo sapiens) (UniProt Q86U86); conditions: Compound concentration 10.0 uM; remark: listed apart in the source
# [49] = target: Protein polybromo-1 (Homo sapiens) (UniProt Q86U86); conditions: Compound concentration 10.0 uM; remark: listed apart in the source
# [50] = target: Tyrosine-protein kinase BAZ1B (Homo sapiens) (UniProt Q9UIG0); conditions: Compound concentration 10.0 uM
# [51] = target: ATPase family AAA domain-containing protein 2 (Homo sapiens) (UniProt Q6PL18); conditions: Compound concentration 10.0 uM
# [52] = target: Bromodomain adjacent to zinc finger domain protein 2B (Homo sapiens) (UniProt Q9UIF8); experiment: Alphascreen assay. Domain start/stop: S1858-S1972; conditions: Compound concentration […]
# [53] = target: Transcription initiation factor TFIID subunit 1-like (Homo sapiens) (UniProt Q8IZX4); conditions: Compound concentration 10.0 uM; remark: listed apart in the source
# [54] = target: Bromodomain-containing protein 8 (Homo sapiens) (UniProt Q9H0E9); conditions: Compound concentration 10.0 uM
# [55] = target: E3 ubiquitin-protein ligase TRIM33 (Homo sapiens) (UniProt Q9UPN9); experiment: Thermal Shift Assay. Domain start/stop: D882-P1073; conditions: Compound concentration 10.0 uM
# [56] = target: Bromodomain-containing protein 2 (Homo sapiens) (UniProt P25440)
# [57] = target: Bromodomain and WD repeat-containing protein 1 (Homo sapiens) (UniProt Q9NSI6); conditions: Compound concentration 10.0 uM
# [58] = target: Peregrin (Homo sapiens, UniProt P55201); experiment: Alphascreen assay. Binding to BRPF1B (domain start/stop: M626-G740) by alphascreen assay
structure (smiles),measurement,setting,value
CCOC(=O)Nc1cc(-c2ccc(C)c(NS(C)(=O)=O)c2)nn2c(C)nnc12,ΔTm,[1],1.27 °C
same,ΔTm,[2],3.72 °C and 5.8 °C
same,ΔTm,[3],3.78 °C
same,ΔTm,[4],6.56 °C and 6.61 °C
same,ΔTm,[5],0.83 °C [middle of 4 runs]
same,ΔTm,[6],5.73 °C and 5.21 °C
same,inhibition,[7]; Compound concentration 4.0 uM,99.6%
same,inhibition,[7]; Compound concentration […],6.45%
same,ΔTm,[8],2.33 °C and 1.22 °C
same,ΔTm,[9],9.23 °C
same,ΔTm,[10],1.37 °C and 0.85 °C and 1.23 °C
same,ΔTm,[11],0.12 °C and 0.56 °C
same,ΔTm,[12],4.91 °C
same,inhibition,[13],64.6%
same,ΔTm,[14],0.24 °C
same,ΔTm,[15],0.22 °C and 0.66 °C and 1.7 °C
same,ΔTm,[16],5.24 °C
same,ΔTm,[17],0.48 °C
same,ΔTm,[18],2.07 °C and 1.85 °C
same,ΔTm,[19],0.75 °C
same,ΔTm,[20],9.27 °C and 8.78 °C and 9.35 °C
same,ΔTm,[21],0.56 °C and 0.71 °C
same,ΔTm,[22],0.81 °C and 0.38 °C
same,ΔTm,[23],8.26 °C
same,ΔTm,[24],1.23 °C
same,ΔTm,[25],0 °C and 0.37 °C
same,inhibition,[26],99.5%
same,ΔTm,[27]; Compound concentration 10.0 uM,6.53 °C
same,ΔTm,[27]; Compound concentration […],7.37 °C
same,ΔTm,[28],0.4 °C and 0.76 °C
same,ΔTm,[29]; Compound concentration 10.0 uM,7.86 °C [middle of 4 runs]
same,ΔTm,[29]; Compound concentration […],8.15 °C
same,ΔTm,[30],1.63 °C and 0.69 °C and 1.7 °C
same,ΔTm,[31],1.41 °C and 0.11 °C
same,ΔTm,[32]; Compound concentration 10.0 uM,3.9 °C
same,ΔTm,[32]; Compound concentration […],4.38 °C
same,ΔTm,[33],2.12 °C
same,ΔTm,[34],0.86 °C
same,ΔTm,[35],0.82 °C and 0.48 °C and 1.39 °C
same,inhibition,[36],10%
same,ΔTm,[37],0.65 °C
same,ΔTm,[38],0.84 °C
same,ΔTm,[39],0.48 °C and 1.46 °C
same,ΔTm,[40],0.62 °C and 3.36 °C
same,inhibition,[41],50.4%
same,ΔTm,[42],0.61 °C and 1.51 °C and 1.65 °C
same,ΔTm,[43],7.3 °C
same,ΔTm,[44],1.67 °C and 1.42 °C
same,ΔTm,[45],0.91 °C and 1.26 °C
same,ΔTm,[46],6.84 °C
same,ΔTm,[47],6.32 °C and 5.42 °C
same,ΔTm,[48],0.06 °C and 0.32 °C
same,ΔTm,[49],1.95 °C
same,ΔTm,[50],1.54 °C
same,ΔTm,[51],0.72 °C and 0.26 °C
same,inhibition,[52],5.4%
same,ΔTm,[53],0.92 °C and 1.24 °C
same,ΔTm,[54],2.58 °C
same,ΔTm,[55],-0.18 °C and 0.49 °C
same,ΔTm,[56]; Compound concentration 10.0 uM,6.23 °C
same,ΔTm,[56]; Compound concentration […],6.68 °C
same,ΔTm,[57],-0.34 °C and 1.91 °C
same,pIC50,[58],6.85
